The target in the assay is T1, 2,6-dichloro-p-hydroquinone 1,2-dioxygenase (Sphingobium chlorophenolicum, UniProt Q9ZBB0).
T1 sequence (Q9ZBB0 whole entry): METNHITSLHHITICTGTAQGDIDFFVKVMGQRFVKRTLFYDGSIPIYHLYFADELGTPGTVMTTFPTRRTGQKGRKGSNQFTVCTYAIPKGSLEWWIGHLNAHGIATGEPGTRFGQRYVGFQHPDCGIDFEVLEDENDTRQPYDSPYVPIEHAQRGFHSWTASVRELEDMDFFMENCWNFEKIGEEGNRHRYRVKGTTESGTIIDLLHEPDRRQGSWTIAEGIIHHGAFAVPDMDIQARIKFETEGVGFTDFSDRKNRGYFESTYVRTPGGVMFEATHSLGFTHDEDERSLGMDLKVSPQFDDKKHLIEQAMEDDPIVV
The experiment in a line: Inhibition Assay. On the procedure:
The rate of the enzymatic reaction was determined by measuring product formation by a spectrophotometric assay developed by Xun and co-worker with modification. The assay was performed on a Cary 50 Bio or Cary 5000 UV-visible spectrophotometer (Varian).

Molecules are shown by their SMILES. pKi: −log10 of the molar value.

`Oc1c(Br)cccc1Br`: the pKi is 4.89. Under `Oc1c(Cl)cccc1Cl` [2,6-Dichlorophenol] stands 4.32.

The term pKi denotes −log10 of the Ki, conventionally taken in molar units.

These data come from BindingDB's records for doi:10.1021/bi200855m (Whitman College, 2011).
